Tests used:
Type in all cases: in vivo
[1] = system: southern armyworm (Spodopetra eridania Cramer); test: Mite/insect screen, sprayed squash leaves (SAW); conditions: percent mortality; for mortality at 400 ppm / mortality at 200 ppm: Spodoptera eridania, read-out: SAW RESULTS %; for mortality at 400 ppm: spray rate 400 ppm; for mortality at 200 ppm: spray rate 200 ppm; for SAW RESULTS %: rate not given
Method: (§1) The compounds of Examples 1-203 were tested for miticidal and insecticidal activity in the following mite/insect screen.
(§2) Each test compound was formulated by dissolving the compound in acetone/alcohol (50:50) mixture containing 23 g of "TOXIMUL R" (sulfonate/nonionic emulsifier blend) and 13 g of "TOXIMUL S" (sulfonate/nonionic emulsifier blend) per liter. These mixtures were then diluted with water to give the indicated concentrations.
(§3) Other plants in the same treatment pot were left uninfested. The leaves were then sprayed with 5 ml of test solution using a DeVilbiss atomizing sprayer at 10 psi. Both surfaces of the leaves were covered until runoff, and then allowed to dry for one hour. Two uninfested leaves were then excised and placed into a Petri dish containing larval southern armyworm (Spodopetra eridania Cramer).
(§4) After standard exposure periods, percent mortality and phytotoxicity were evaluated. […]

[2] = system: Pyricularia oryzae (rice blast); conditions: disease control rating, foliar spray, host rice; 400 ppm (+++ at 100 ppm)
[3] = system: Twospotted spider mites (Tetranychus urticae Koch); test: Mite/insect screen, sprayed squash cotyledons (SM); conditions: percent mortality; for mortality at 400 ppm / mortality at 200 ppm: Tetranychus urticae, read-out: SM RESULTS %; for mortality at 400 ppm: spray rate 400 ppm; for mortality at 200 ppm: spray rate 200 ppm; for SM RESULTS %: rate not given
Method: as §1, §2, §3, §4

[4] = system: Puccinia recondita tritici (leaf rust); test: Greenhouse Test 1, foliar spray fungicide screen (LEAF RUST), host wheat; conditions: disease control rating, 400 ppm (+++ at 100 ppm)
[5] = system: Southern corn rootworm (Diabrotica undecimpuctata howardi Barber); test: Mite/insect screen, soil treatment (CRW); conditions: percent mortality; for mortality at 24 ppm / mortality at 12 ppm: Diabrotica, soil treatment, read-out: CRW RESULTS %; for mortality at 24 ppm: CRW rate 24.00 ppm; for mortality at 12 ppm: CRW rate 12.00 ppm; for CRW RESULTS %: rate not given
Method: as §1, §2
Activity on Southern corn rootworm (Diabrotica undecimpuctata howardi Barber) was evaluated by adding two ml of tap water, a presoaked corn seed, and 15 g of dry sandy soil to a one ounce plastic container. The soil was treated with 1 mL of test solution containing a pre-determined concentration of test compound. After six to 12 hours of drying, five 2-3 instar corn rootworm larvae were added to the individual cups, which were then capped and held at 23°C.
as §4

[6] = system: melon aphids (Aphis gossypii Glover); test: Mite/insect screen, sprayed squash cotyledons (MA); conditions: percent mortality; for mortality at 400 ppm / mortality at 200 ppm: Aphis gossypii, read-out: MA RESULTS %; for mortality at 400 ppm: spray rate 400 ppm; for mortality at 200 ppm: spray rate 200 ppm; for MA RESULTS %: rate not given
Method: as §1, §2, §3, §4

[7] = system: Erysiphe graminis tritici (powdery mildew); test: Greenhouse Test 1, foliar spray fungicide screen (POWD MDEW), host wheat; conditions: disease control rating, 400 ppm (+++ at 100 ppm)
[8] = system: Botrytis cinerea (gray mold); test: Greenhouse Test 1, foliar spray fungicide screen (GRAY MOLD), host grape berries; conditions: disease control rating, 400 ppm (+++ at 100 ppm)
[9] = system: Pseudoperonospora cubensis (downy mildew); test: Greenhouse Test 1, foliar spray fungicide screen (DOWN MDEW), host squash; conditions: disease control rating, 400 ppm (+++ at 100 ppm)

Compound | mortality at 400 ppm [1] | RICE BLAST [2] | mortality at 400 ppm [3] | LEAF RUST [4] | mortality at 24 ppm [5] | mortality at 400 ppm [6] | POWD MDEW [7] | GRAY MOLD [8] | DOWN MDEW [9] | mortality at 200 ppm [1] | mortality at 200 ppm [3] | mortality at 12 ppm [5] | mortality at 200 ppm [6] | SAW RESULTS % [1] | SM RESULTS % [3] | CRW RESULTS % [5] | MA RESULTS % [6]
C=CC(CCc1ccccc1)Oc1ncnc2ccccc12 (stereo not shown) [Example 148, 4-[(1-benzyl-3-buten-2-yl)oxy]quinazoline] | 0% | ++ (++ = 90-100% control at 400 ppm) | 0% | + (+ = 20-89% control at 400 ppm) | 0% | 0% | ++ (++ = 90-100% control at 400 ppm) | - (- = 0-19% control at 400 ppm) | ++ (++ = 90-100% control at 400 ppm) |  |  |  |  |  |  |  | 
c1ccc2c(CCOc3ncnc4ccccc34)cccc2c1 [Example 91, 4-[2-(1-naphthyl)ethoxy]quinazoline] | 0% | ++ (++ = 90-100% control at 400 ppm) | 0% | + (+ = 20-89% control at 400 ppm) | 0% | 0% | + (+ = 20-89% control at 400 ppm) | - (- = 0-19% control at 400 ppm) | ++ (++ = 90-100% control at 400 ppm) | 0% | 0% | 0% | 0% |  |  |  | 
Clc1cccc(CCOc2ncnc3ccccc23)c1 [Example 41, 4-[2-(3-chlorophenyl)ethoxy]quinazoline] | 0% | ++ (++ = 90-100% control at 400 ppm) | 80% | +++ (+++ = 90-100% control at 100 ppm) | 0% | 80% | +++ (+++ = 90-100% control at 100 ppm) | - (- = 0-19% control at 400 ppm) | +++ (+++ = 90-100% control at 100 ppm) |  |  |  |  | 0% | 0% | 0% | 100%
CC(C)(C)c1ccc(CCCOc2ncnc3c(F)cccc23)cc1 [Example 149, 8-fluoro-4-[3-[4-(1,1-dimethylethyl)phenyl]propoxy]quinazoline] | 0% | - (- = 0-19% control at 400 ppm) | 0% | - (- = 0-19% control at 400 ppm) | 0% | 0% | ++ (++ = 90-100% control at 400 ppm) | - (- = 0-19% control at 400 ppm) | - (- = 0-19% control at 400 ppm) | 0% | 0% | 0% | 0% |  |  |  | 
COc1ccc(CCOc2ncnc3ccccc23)cc1 [Example 49, 4-[2-(4-methoxyphenyl)ethoxy]quinazoline] | 0% | +++ (+++ = 90-100% control at 100 ppm) | 80% | +++ (+++ = 90-100% control at 100 ppm) | 0% | 0% | +++ (+++ = 90-100% control at 100 ppm) | - (- = 0-19% control at 400 ppm) | +++ (+++ = 90-100% control at 100 ppm) |  |  |  |  | 0% | 90% | 0% | 100%
CC(CNc1ncnc2c(F)cccc12)c1ccc(Cl)cc1 (stereo not shown) [Example 17, N-[2-(4-chlorophenyl)propyl]-8-fluoro-4-quinazolinamine] | 0% | +++ (+++ = 90-100% control at 100 ppm) | 100% | +++ (+++ = 90-100% control at 100 ppm) | 0% | 100% | ++ (++ = 90-100% control at 400 ppm) | - (- = 0-19% control at 400 ppm) | +++ (+++ = 90-100% control at 100 ppm) |  |  |  |  |  |  |  | 
Fc1cccc2c(OCCc3ccc4ccccc4c3)ncnc12 [Example 66, 8-fluoro-4-[2-(2-naphthyl)ethoxy]quinazoline] | 0% | +++ (+++ = 90-100% control at 100 ppm) | 0% | +++ (+++ = 90-100% control at 100 ppm) | 0% | 0% | +++ (+++ = 90-100% control at 100 ppm) | - (- = 0-19% control at 400 ppm) | +++ (+++ = 90-100% control at 100 ppm) |  |  |  |  |  |  |  | 
Fc1cccc2c(OCCc3ccccc3)ncnc12 [Example 95, 8-fluoro-4-(2-phenylethoxy)quinazoline] | 0% | - (- = 0-19% control at 400 ppm) | 0% | +++ (+++ = 90-100% control at 100 ppm) | 0% | 0% | +++ (+++ = 90-100% control at 100 ppm) | - (- = 0-19% control at 400 ppm) | +++ (+++ = 90-100% control at 100 ppm) | 0% | 0% | 0% | 80% |  |  |  | 
c1ccc(Oc2ccc(CCCc3ncnc4ccccc34)cc2)cc1 [Example 164, 4-[3-(4-phenoxyphenyl)propyl]quinazoline] | 40% | +++ (+++ = 90-100% control at 100 ppm) | 20% | +++ (+++ = 90-100% control at 100 ppm) | 0% | 80% | + (+ = 20-89% control at 400 ppm) | - (- = 0-19% control at 400 ppm) | +++ (+++ = 90-100% control at 100 ppm) | 40% | 80% | 0% | 80% |  |  |  | 
c1ccc2c(c1)Cc1cc(CCOc3ncnc4ccccc34)ccc1-2 [Example 20, 4-[2-(9H-fluoren-2-yl)ethoxy]quinazoline] | 60% | ++ (++ = 90-100% control at 400 ppm) | 100% | + (+ = 20-89% control at 400 ppm) | 100% | 100% | ++ (++ = 90-100% control at 400 ppm) |  | + (+ = 20-89% control at 400 ppm) |  |  |  |  |  |  |  | 
FC(F)(F)c1ccc(CCOc2ncnc3ccccc23)cc1 [Example 134, 4-[2-[4-(trifluoromethyl)phenyl]ethoxy]quinazoline] | 100% | +++ (+++ = 90-100% control at 100 ppm) | 100% | +++ (+++ = 90-100% control at 100 ppm) | 0% | 100% | +++ (+++ = 90-100% control at 100 ppm) |  |  | 60% | 90% | 0% | 100% |  |  |  | 

Source: EP0326329B1, “Quinazoline derivatives useful as insecticides” (Dow AgroSciences LLC, priority 1988, dated 1989)
